Assay: DPPH radical scavenging antioxidant test
Assay type: biochemical
Conditions: 517 nm; for Inhibition (radical scavenging inhibition): 0.2 mL DPPH (0.75 mM), compound 3 μM in ethanol, 30 min incubation in the dark
Protocol: The antioxidant properties of the 8-((3-formyl-4-hydroxyphenyl)diazenyl)naphthalene-1,3-disulfonic acid were studied by adding 0.2 mL DPPH (0.75 mM)) to compound 8-((3-formyl-4-hydroxyphenyl)diazenyl)naphthalene-1,3-disulfonic acid (III) (3 μM) in ethanol. After 30 min of incubation in the dark, the absorbance was read against a blank at 517 nm. Ascorbic acid (vitamin C) was used as standard antioxidants (positive control). A blank sample was prepared by 0.2 ml of DPPH in 3 ml ethanol. A negative control sample was run using ethanol instead of the sample. The radical scavenging inhibition was calculated using the following equation: […]
The antioxidant activity for the synthesized compound is listed in Table 1, using Vitamin C as a reference.

## O=C1O[C@H]([C@@H](O)CO)C(O)=C1O [vit c, Ascorbic acid, reference compound]
  Inhibition (radical scavenging inhibition): 74%

## O=Cc1cc(N=Nc2cccc3cc(S(=O)(=O)O)cc(S(=O)(=O)O)c23)ccc1O [Product III, 8-((3-formyl-4-hydroxyphenyl)diazenyl)naphthalene-1,3-disulfonic acid]
  Inhibition (radical scavenging inhibition): 54%
DPPH in vitro test, vitamin C as positive control
  antioxidant potential compared to vitamin C (in words): high potential as an antioxidant compared to vitamin C
